Source: patent US8076352B2, “Administration of carboline derivatives useful in the treatment of cancer and other diseases” (PTC Therapeutics, Inc., priority 2004, dated 2011)

Tested on: hypoxia-inducible endogenous VEGF expression in HeLa cells
Experiment: Hypoxia-inducible endogenous VEGF expression, VEGF ELISA of conditioned media (dose-response EC50)
Format: cell-based
Conditions: HeLa cells, hypoxic conditions (1% O2, 5% CO2)
Protocol: The ability of the compounds of the invention to modulate hypoxia-inducible endogenous VEGF expression may be analyzed as follows. VEGF protein levels may be monitored by an ELISA assay (R&D Systems). Briefly, HeLa cells may be cultured for 24-48 hours under hypoxic conditions (1% O2, 5% CO2, balanced with nitrogen) in the presence or absence of a compound of the invention. The conditioned media may then be assayed by ELISA, and the concentration of VEGF calculated from the standard ELISA curve of each assay.
A dose-response analysis may be performed using the ELISA assay and conditions described above. The conditions for the dose-response ELISA are analogous to those described above. A series of, e.g., seven different concentrations may be analyzed. […] Dose-response curves may be plotted using percentage inhibition versus concentration of the compound, and EC50 and CC50 values may be generated for each compound with the maximal inhibition set as 100% and the minimal inhibition as 0%.

Structure (SMILES) | EC50
O=C(Oc1ccc(F)cc1)N1CCc2c([nH]c3ccc(Cl)cc23)C1c1ccc(OCCCn2ccnc2)cc1 (centres unmarked) [Compound 994] | < 8 nM

Same assay, conditions: Homo sapiens, HeLa cells under hypoxic conditions

Structure (SMILES) | EC50
CN(C)c1ccc(C2NCCc3c2[nH]c2ccc(Cl)cc32)cc1 (centres unmarked) [Compound 297] | > 1000 nM
CCOC(=O)N1CCc2c([nH]c3ccc(Cl)cc23)C1Cc1ccccc1 (centres unmarked) [Compound 226] | 200 to 1000 nM
CCOC(=O)N1CCc2c([nH]c3ccc(Cl)cc23)C1c1cccc(F)c1F (centres unmarked) [Compound 5] | < 8 nM
CCOC(=O)Oc1cccc(C2c3[nH]c4ccc(Cl)cc4c3CCN2C(=O)OCC)c1 (centres unmarked) [Compound 175] | 200 to 1000 nM
CCOC(=O)N1CCc2c([nH]c3ccc(Cl)cc23)C1c1ccc(F)c(F)c1 (centres unmarked) [Compound 39] | < 8 nM
CCOC(=O)N1CCc2c([nH]c3ccc(Cl)cc23)C1c1cccc(CN2CCN(CCCN(C)C)CC2)c1 (centres unmarked) [Compound 389] | < 8 nM
CCCOC(=O)N1CCc2c([nH]c3ccc(Cl)cc23)C1c1ccccc1F (centres unmarked) [Compound 97] | 8 to 40 nM
COc1ccc(C2c3[nH]c4ccc(Cl)cc4c3CCN2C(=O)OCCCl)cc1 (centres unmarked) [Compound 61] | 8 to 40 nM
CCOC(=O)N1CCc2c([nH]c3ccc(F)cc23)C1c1ccc(C)cc1 (centres unmarked) [Compound 209] | 200 to 1000 nM
CC(C)OC(=O)N1CCc2c([nH]c3ccc(Cl)cc23)C1c1ccc(C(C)C)cc1 (centres unmarked) [Compound 24] | < 8 nM
O=C(OCCCl)N1CCc2c([nH]c3ccc(Cl)cc23)C1c1cc(F)ccc1F (centres unmarked) [Compound 22] | < 8 nM
CCOC(=O)N1CCc2c([nH]c3ccc(F)cc23)C1c1ccc(Cl)cc1 (centres unmarked) [Compound 229] | > 1000 nM
CCCOC(=O)N1CCc2c([nH]c3ccc(Cl)cc23)C1c1cccc(Br)c1 (centres unmarked) [Compound 69] | 8 to 40 nM
Clc1ccc2[nH]c3c(c2c1)CCNC3c1cccs1 (centres unmarked) [Compound 310] | > 1000 nM
COC(=O)N1CCc2c([nH]c3ccc(Br)cc23)C1c1ccccc1 (centres unmarked) [Compound 65] | 8 to 40 nM
Brc1ccc2[nH]c3c(c2c1)CCNC3c1ccc(OCc2ccccc2)cc1 (centres unmarked) [Compound 232] | > 1000 nM
COc1ccccc1C1NCCc2c1[nH]c1ccc(Cl)cc21 (centres unmarked) [Compound 301] | > 1000 nM
COCC(=O)N1CCc2c([nH]c3ccc(Br)cc23)C1c1ccc(OC)cc1 (centres unmarked) [Compound 204] | 200 to 1000 nM
Cc1ccc(C2c3[nH]c4ccc(Cl)cc4c3CCN2C(=O)OCCCl)cc1 (centres unmarked) [Compound 48] | 8 to 40 nM
CC(C)OC(=O)N1CCc2c([nH]c3ccc(Cl)cc23)C1c1cccc(F)c1 (centres unmarked) [Compound 90] | 8 to 40 nM
CC(C)OC(=O)N1CCc2c([nH]c3ccc(Cl)cc23)C1c1ccccc1 (centres unmarked) [Compound 101] | 8 to 40 nM

Structure (SMILES) | EC50
COc1ccc(C2c3[nH]c4ccc(Cl)cc4c3CCN2C(=O)OC(C)C)cc1 (centres unmarked) [Compound 57] | 8 to 40 nM
CCOC(=O)N1CCc2c([nH]c3ccc(Cl)cc23)C1c1ccc(C)cc1 (centres unmarked) [Compound 91] | 8 to 40 nM
CCOC(=O)N1CCc2c([nH]c3ccc(Cl)cc23)C1c1ccc(C(F)(F)F)cc1 (centres unmarked) [Compound 31] | < 8 nM
COc1ccc(C2NCCc3c2[nH]c2ccccc32)cc1 (centres unmarked) [Compound 313] | > 1000 nM
COc1ccc(C2c3[nH]c4ccc(Cl)cc4c3CCN2C(=O)N(C)c2ccccc2)cc1 (centres unmarked) [Compound 340] | > 1000 nM
Fc1cccc(C2NCCc3c2[nH]c2ccc(Br)cc32)c1F (centres unmarked) [Compound 132] | 40 to 200 nM
COc1ccc(C2NC(C(=O)N3CCN(C(C)=O)CC3)Cc3c2[nH]c2ccc(Br)cc32)cc1 (centres unmarked) [Compound 244] | > 1000 nM
CCCCCNC(=S)N1CCc2c([nH]c3ccc(Cl)cc23)C1c1ccc(C(C)C)cc1 (centres unmarked) [Compound 337] | 40 to 200 nM
COc1ccc(C2NCCc3c2[nH]c2ccc(OCc4ccccc4)cc32)cc1 (centres unmarked) [Compound 292] | > 1000 nM
Clc1cccc(C2NCCc3c2[nH]c2ccc(Cl)cc32)c1 (centres unmarked) [Compound 198] | 200 to 1000 nM
Clc1ccc2[nH]c3c(c2c1)CCN(Cc1ccco1)C3c1nccs1 (centres unmarked) [Compound 267] | > 1000 nM
O=C(OCCCl)N1CCc2c([nH]c3ccc(Cl)cc23)C1c1ccc(Br)cc1 (centres unmarked) [Compound 58] | 8 to 40 nM
CCOC(=O)N1CCc2c([nH]c3ccc(Br)cc23)C1c1cnc(SC)nc1 (centres unmarked) [Compound 393] | < 8 nM
COc1ccc(C2NCCc3c2[nH]c2ccc(OC)cc32)cc1 (centres unmarked) [Compound 323] | > 1000 nM
CC(C)c1ccc(C2NCCc3c2[nH]c2ccc(Cl)cc32)cc1 (centres unmarked) [Compound 162] | 40 to 200 nM
CCCOC(=O)N1CCc2c([nH]c3ccc(Cl)cc23)C1c1cccc(C(F)(F)F)c1 (centres unmarked) [Compound 79] | 8 to 40 nM
Fc1ccc(C2NCCc3c2[nH]c2ccc(Br)cc32)cc1F (centres unmarked) [Compound 201] | 200 to 1000 nM
COC(=O)N1CCc2c([nH]c3ccc(Cl)cc23)C1c1cccc(OC)c1 (centres unmarked) [Compound 127] | 40 to 200 nM
CC(C)(C)OC(=O)N[C@@H](Cc1ccccc1)C(=O)N1CCc2c([nH]c3ccc(Cl)cc23)C1c1ccccc1 (some centres unmarked) [Compound 233] | > 1000 nM
Clc1ccc2[nH]c3c(c2c1)CCN(Cc1ccccc1)C3c1ccncc1 (centres unmarked) [Compound 272] | > 1000 nM

Same assay, conditions: Homo sapiens, HeLa cells, hypoxic conditions (1% O2)

Structure (SMILES) | EC50
COCCOCCOc1ccc(C2c3[nH]c4ccc(Cl)cc4c3CCN2C(=O)Oc2ccc(C)cc2)cc1 (centres unmarked) [Compound 677] | 8 to 40 nM
Cc1ccc(OC(=O)N2CCc3c([nH]c4ccc(Cl)cc34)C2c2ccc(OCC(O)CO)cc2)cc1 (centres unmarked) [Compound 631] | < 8 nM
COc1ccc(C2c3[nH]c4ccc(Cl)cc4c3CCN2C(=O)Cc2ccc(Cl)cc2)cc1 (centres unmarked) [Compound 447] | 8 to 40 nM
CCC(Br)C(=O)N1CCc2c([nH]c3ccc(Cl)cc23)C1c1ccc(OC)cc1 (centres unmarked) [Compound 559] | 200 to 1000 nM
O=C(Oc1ccccc1Cl)N1CCc2c([nH]c3ccc(Cl)cc23)C1c1ccc(OCCCCl)cc1 (centres unmarked) [Compound 713] | 8 to 40 nM
O=C(Oc1ccc(F)cc1)N1CCc2c([nH]c3ccc(Cl)cc23)C1c1ccc(OCCCCNCCCn2ccnc2)cc1 (centres unmarked) [Compound 741] | 40 to 200 nM
O=C(Oc1ccc(Br)cc1)N1CCc2c([nH]c3ccc(Cl)cc23)C1c1ccc(OCC(O)CO)cc1 (centres unmarked) [Compound 630] | < 8 nM
CCOC(=O)N1CCc2c([nH]c3ccc(Cl)cc23)C1c1cccc(C(=O)N2CCN(C)CC2)c1 (centres unmarked) [Compound 529] | 200 to 1000 nM
CCOC(=O)N1CCC(NC(=O)c2ccc(C3c4[nH]c5ccc(Cl)cc5c4CCN3C(=O)OCC)cc2)CC1 (centres unmarked) [Compound 453] | 8 to 40 nM
CCOC(=O)N1CCc2c([nH]c3ccc(Br)cc23)C1c1ccc(C(=O)NCCN2CCOCC2)cc1 (centres unmarked) [Compound 488] | 40 to 200 nM
CCOC(=O)N1CCc2c([nH]c3ccc(Cl)cc23)C1c1ccc(C(=O)N2CCOCC2)cc1 (centres unmarked) [Compound 492] | 40 to 200 nM
COc1ccc(OC(=O)N2CCc3c([nH]c4ccc(Cl)cc34)C2c2cnc(N(C)C)nc2)cc1 (centres unmarked) [Compound 445] | 8 to 40 nM
CCOC(=O)N1CCc2c([nH]c3ccc(Br)cc23)C1c1cnc(NC)nc1 (centres unmarked) [Compound 496] | 40 to 200 nM
CSC(C)CC1NCCc2c1[nH]c1ccc(Cl)cc21 (centres unmarked) [Compound 568] | > 1000 nM
CN1CCN(CCCCCCOc2ccc(C3c4[nH]c5ccc(Cl)cc5c4CCN3C(=O)Oc3ccc(F)cc3)cc2)CC1 (centres unmarked) [Compound 778] | < 8 nM
O=C(Oc1ccc(F)cc1)N1CCc2c([nH]c3ccc(Cl)cc23)C1c1ccc(OCCCCl)cc1 (centres unmarked) [Compound 712] | < 8 nM
O=C(Oc1ccc([N+](=O)[O-])cc1)N1CCc2c([nH]c3ccc(Cl)cc23)C1c1ccc(OCC(O)CO)cc1 (centres unmarked) [Compound 632] | 8 to 40 nM
CCOC(=O)N1CCc2c([nH]c3ccc(Cl)cc23)C1c1cnc(NC)nc1 (centres unmarked) [Compound 506] | 40 to 200 nM
O=C1NC2CSC(CCCCC(=O)OCCOc3ccc(C4c5[nH]c6ccc(Cl)cc6c5CCN4C(=O)Oc4ccc(Cl)cc4)cc3)C2N1 (centres unmarked) [Compound 544] | < 8 nM
O=C(Oc1ccc(Cl)cc1)N1CCc2c([nH]c3ccc(Cl)cc23)C1c1ccc(OCCCN2CCCCC2)cc1 (centres unmarked) [Compound 433] | < 8 nM
CC(C)OC(=O)N1CCc2c([nH]c3ccc(Cl)cc23)C1c1ccc(OCCCN(C)C)cc1 (centres unmarked) [Compound 459] | 8 to 40 nM
CCOC(=O)N1CCc2c([nH]c3ccc(Br)cc23)C1c1ccc(C(=O)N(C)C)cc1 (centres unmarked) [Compound 483] | 40 to 200 nM
CCOC(=O)N1CCc2c([nH]c3ccc(Cl)cc23)C1c1cccc(CN2CCN(CCOC)CC2)c1 (centres unmarked) [Compound 567] | > 1000 nM
CCOC(=O)N1CCc2c([nH]c3ccc(Br)cc23)C1c1ccc(C(=O)NCCO)cc1 (centres unmarked) [Compound 490] | 40 to 200 nM
Nc1ncc(C2c3[nH]c4ccc(Cl)cc4c3CCN2C(=O)Oc2ccc(Cl)cc2)cn1 (centres unmarked) [Compound 457] | 8 to 40 nM
CNc1ncc(C2c3[nH]c4ccc(Br)cc4c3CCN2C(=O)Oc2ccc(OC)cc2)cn1 (centres unmarked) [Compound 503] | 40 to 200 nM
O=C(CN1CCOCC1)Nc1ccc(C2c3[nH]c4ccc(Cl)cc4c3CCN2C(=O)Oc2ccc(Cl)cc2)cc1 (centres unmarked) [Compound 454] | 8 to 40 nM

Same assay, conditions: Homo sapiens, HeLa cells, hypoxic conditions (1% O2, 5% CO2)

Structure (SMILES) | EC50
Cc1ccc(OC(=O)N2CCc3c([nH]c4ccc(Cl)cc34)C2c2ccc(OCCCCl)cc2)cc1 (centres unmarked) [Compound 915] | < 8 nM
Cc1ccc(OC(=O)N2CCc3c([nH]c4ccc(Cl)cc34)C2c2ccc(OCCCn3cncn3)cc2)cc1 (centres unmarked) [Compound 882] | < 8 nM
O=C(Oc1ccc(Cl)cc1)N1CCc2c([nH]c3ccc(Cl)cc23)C1c1ccc(OCCn2cncn2)cc1 (centres unmarked) [Compound 840] | 8 to 40 nM
O=C(Oc1ccccc1)N1CCc2c([nH]c3ccc(Cl)cc23)C1c1ccc(OCCCn2cncn2)cc1 (centres unmarked) [Compound 891] | < 8 nM
O=C(Oc1ccc(F)cc1)N1CCc2c([nH]c3ccc(Cl)cc23)C1c1ccc(OCCn2cncn2)cc1 (centres unmarked) [Compound 834] | 8 to 40 nM
